Test: Dissolving the cooling agent in a solvent with stepwise heating, then cooling to room temperature and observing crystallisation
Type: physicochemical

SMILES: COc1ccc(NC(=O)[C@@H]2C[C@H](C)CC[C@H]2C(C)C)cc1 [(1R,2S,5R)-N-(4-methoxyphenyl)-5-methyl-2-(1-methylethyl)-cyclohexane-carboxamide]
- amount of cooling agent that can be dissolved (in 2-hydroxypropyl (2-isopropyl-5-methyl-cyclohexyl) carbonate, (2-isopropyl-5-methyl-cyclohexyl) 2-hydroxypropanoate or a mixture of both, based on the total weight of the composition): up to 12 % by weight
- solubility in medium-chain triglycerides (medium-chain triglycerides as solvent, even at 60° C.): insoluble
